In patent publication US20180186742A1, “PICOLINAMIDES AS FUNGICIDES” (Dow AgroSciences LLC, priority 2017, published 2018):
Where two headings read alike, the source gives them in different places.

Assays:
Type in all cases: in vivo
Phakopsora pachyrhizi = test: Asian soybean rust (PHAKPA), disease control on soybean seedlings; conditions: High volume application at 25 ppm
Summary of the method: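 Two-week-old Williams 82 soybean seedlings were sprayed to run-off with compound in acetone/water (1:9) containing 0.011% Tween 20. Inoculation was 3 days before (curative) or 1 day after (protectant) treatment, followed by 24 h dark dew at 22 °C, 100% RH, then 23 °C; disease severity scored on sprayed leaves.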

Zymoseptoria tritici = test: Leaf blotch of wheat (SEPTTR), disease control on wheat seedlings; conditions: low volume application at 121.5 g/H
Summary of the method: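 Z. tritici spores were inoculated onto wheat seedlings (Yuma, first leaf emerged) either before or after treatment. Treatment was an automated spray to run-off of acetone/Triton X-100 water solutions, or a track spray of EC formulations with 0.1% Trycol 5941. Plants were held in dew chambers at 20 °C and then a greenhouse at 20 °C. First-leaf severity (0–100%) was converted to percent control against untreated plants.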

Puccinia triticina = test: Wheat brown rust (PUCCRT), disease control on wheat seedlings; conditions: low volume application at 121.5 g/H
Summary of the method: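 Compounds in acetone, diluted with nine volumes of water containing 110 ppm Triton X-100, sprayed to run-off on first-leaf Yuma wheat seedlings; track-spray tests used EC formulations with 0.1% Trycol 5941. Puccinia triticina spores applied before or after treatment. Overnight dark dew room at 22° C, 100% humidity, then greenhouse at 24° C.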

[1] = 24 h, 1 Day Protectant, read-out: PHAKPA 1DP disease control rating
[2] = 72 h, 3 Day Curative, read-out: PHAKPA 3DC disease control rating
[3] = 24 h, 1 Day Protectant, read-out: SEPTTR disease control, 1DP, LV activity
[4] = 72 h, 3 Day Curative, read-out: SEPTTR disease control, 3DC, LV activity
[5] = 24 h, 1 Day Protectant, read-out: PUCCRT disease control, 1DP, LV activity
[6] = 72 h, 3 Day Curative, read-out: PUCCRT disease control, 3DC, LV activity

Row | Compound | pest or weed control at 25 ppm (Phakopsora pachyrhizi; [1]) [%] | pest or weed control at 25 ppm (Phakopsora pachyrhizi; [2]) [%] | pest or weed control at 121.5 g/ha (Zymoseptoria tritici; [3]) [%] | pest or weed control at 121.5 g/ha (Zymoseptoria tritici; [4]) [%] | pest or weed control at 121.5 g/ha (Puccinia triticina; [5]) [%] | pest or weed control at 121.5 g/ha (Puccinia triticina; [6]) [%] | pest or weed control at 121.5 g/ha (Zymoseptoria tritici; 24 h, 1 Day Protectant, wheat leaf blotch, read-out: SEPTTR 1DP disease control, LV activity) [%] | pest or weed control at 121.5 g/ha (Zymoseptoria tritici; 72 h, 3 Day Curative, wheat leaf blotch, read-out: SEPTTR 3DC disease control, LV activity) [%] | pest or weed control at 121.5 g/ha (Puccinia triticina; 24 h, 1 Day Protectant, wheat brown rust, read-out: PUCCRT 1DP disease control, LV activity) [%] | pest or weed control at 121.5 g/ha (Puccinia triticina; 72 h, 3 Day Curative, wheat brown rust, read-out: PUCCRT 3DC disease control, LV activity) [%]
1 | COc1cc(F)ccc1[C@H](C1CCCC1)[C@H](C)OC(=O)[C@H](C)NC(=O)c1nccc(OC)c1OC(C)=O [Compound 228] | > 80 | < 80 | > 80 | < 80 | > 80 | < 80 | – | – | – | –
2 | COc1ccnc(C(=O)N[C@@H](C)C(=O)O[C@H](C)[C@H](c2ccc(F)cc2C)C2CCCC2)c1OC(C)=O [Compound 190] | < 80 | < 80 | < 0 | < 80 | < 0 | < 0 | – | – | – | –
3 | CCC(CC)[C@H](c1ccc(F)cc1C)[C@H](C)OC(=O)[C@H](C)NC(=O)c1nccc(OC)c1OC(C)=O [Compound 179] | < 80 | < 80 | > 80 | > 80 | > 80 | < 0 | – | – | – | –
4 | COc1cc(F)ccc1[C@@H](C1CCC1)[C@H](C)OC(=O)[C@H](C)NC(=O)c1nccc(OC)c1OC(C)=O [Compound 226] | < 80 | < 0 | < 80 | < 80 | < 80 | < 80 | – | – | – | –
5 | COc1ccnc(C(=O)N[C@@H](C)C(=O)O[C@@H](C)[C@H](c2ccc(F)cc2F)C(C)C)c1OC(C)=O [Compound 365] | > 80 | > 80 | – | – | – | – | > 80 | > 80 | > 80 | > 80
